Literature values, collected in patent publication US20250144122A1, “Scent-Changing Ointment & Method of Making The Same” (priority 2023, published 2025).

Key:
[1] = in vivo
[2] = topical application, 3.5% gel

| Structure (SMILES) | analgesic effect (pain threshold) [1] | blood flow remains reduced ([2]; at 10 minutes after application) [%] | reduces blood flow ([2]; within 60 seconds of application) [%] |
| --- | --- | --- | --- |
| CC1CC[C@H](C(C)C)[C@@H](O)C1 (stereo partly shown) [(d)-menthol] | completely devoid of any analgesic effect |  |  |
| CC(C)[C@@H]1CC[C@@H](C)C[C@H]1O [(l)-menthol] | able to increase pain threshold |  |  |
| CC1CCC(C(C)C)C(O)C1 (stereo not shown) [menthol, Menthol] |  | 20 | 35 |
